Test results from patent US6369003B1, “Process and composition for soil improvement by reducing microbially formed ethylene in the soil” (BASF Aktiengesellschaft, priority 1994, dated 2002).

Legend:
Wheat (Ralle) = test: Promotion of shoot growth of wheat, greenhouse; assay type: in vivo; details: applied by watering 10 days after sowing; 3 weeks after treatment
Experimental: (§1) In these tests various types of non-sterile soils were used. The cultivation of the plants was carried out under greenhouse or climatic chamber conditions. The active compounds according to the invention were applied uniformly distributed over the soil surface in an aqueous preparation after the emergence of the respective test plants. The supply of water for the plants was carrried out using the same technique, always paying attention to uniform moistness of the soil. In the case of the cultivation of legumes, defined amounts of species-specific Rhizobia were admixed to the soil. In some cases inoculation was also carried out by seed treatment.
(§2) Wheat (Ralle) and rape (Petranova) plants were cultured under greenhouse conditions in low N Limburgerhof soil in plastic pots (500 ml) and watered from above as required. The water content of the soil here was about 80% of the maximum water capacity. A few days after emergence the plants were thinned out to 40 plants per pot.
(§3) 10 days after sowing aqueous preparations of 2.3.1.3 were applied by watering to 8 pots per test series in each case. 16 pots in each case remained untreated. 3 weeks after treatment the fresh shoot weight of the plants was determined.

rape (Petranova) = test: Promotion of shoot growth of rape, greenhouse; assay type: in vivo; details: applied by watering 10 days after sowing; 3 weeks after treatment
Experimental: as §1, §2, §3

[1] = test system: Peas (Kleine Rheinländerin); test: Peas test 2a: biomass, root nodules, nitrogen assimilation, greenhouse; assay type: in vivo, Pisum sativum; details: 3 weeks after treatment; for Dry matter (shoot + root): control 3.3; for Nodules: control 13; for Total N (total nitrogen in shoot + root): control 78.5
Experimental: as §1
a) Peas (Kleine Rheinländerin) were cultivated under greenhouse conditions in low N Limburgerhof soil in plastic pots (500 ml) and watered from above as required (a constant weight was maintained here). A few days after emergence the plants were thinned out to 5 plants per pot.
In four pots in each case aqueous active compound solutions of one concentration of 2.3.1.3 were applied by watering. Four pots remained untreated.
3 weeks after treatment the following results were obtained: […]

Peas (Field Peas VNS) = test: Peas test 2c: root nodules, root and shoot biomass, greenhouse; assay type: in vivo, Pisum sativum; details: 30 days after treatment; for Nodules: untreated 6.1; for Dry matter root: untreated 275; for Dry matter shoot: untreated 459
Experimental: as §1, with “treatment. c) Peas (Field Peas VNS) were cultivated under greenhouse conditions in low N, sandy loam soil in plastic pots (750 ml) and watered from above as required. A few days after emergence the plants were thinned out to 7 plants per pot. In 5 pots in each case 25 ml each of an aqueous preparation of one concentration of 2.3.1.3 were applied by watering. 5 pots remained untreated. 30 days after treatment the following results were obtained: […]” for “treatment.”

[2] = test system: Soybean plants (Delta Pine 415); test: Soybeans test 3a: root nodules and total N, greenhouse; assay type: in vivo, Glycine max; details: after 3 weeks; for Nodules: untreated 49
Experimental: as §1
(§4) a) Soybean plants (Delta Pine 415) were cultivated under greenhouse conditions in low N Limburgerhof soil in plastic pots (500 ml) and watered from above as required. A few days after emergence the plants were thinned out to 5 plants per pot.
(§5) In 8 pots in each case per test member an aqueous active compound solution of 2.3.1.3 was applied by watering. 16 pots remained untreated in each case.

[3] = test system: Soybean plants (Delta Pine 415); test: Soybeans test 3b: root nodules, greenhouse; assay type: in vivo, Glycine max; details: untreated 47
Experimental: as §1, §4, §5
b) Test procedure as in 3 a) active compound 2.3.1.3

Soybeans (A 5403) = test: Soybeans test 3d: root nodules, root and shoot biomass, greenhouse; assay type: in vivo, Glycine max; details: 30 days after treatment; for Nodules: untreated 38.3; for Dry matter root: untreated 1955; for Dry matter shoot: untreated 3616
Experimental: as §1, with “treatment. d) Soybeans (A 5403) were cultivated under greenhouse conditions in low N, sandy loam soil in plastic pots (750 ml) and watered from above as required. A few days after emergence the plants were thinned out to 3 plants per pot. In 5 pots in each case 25 ml each of an aqueous preparation of one concentration of 2.3.1.3 were applied by watering. 5 pots remained untreated. 30 days after treatment the following results were obtained: […]” for “treatment.”

Chick-pea plants (UC-27) = test: Chick-peas: root nodules, root and shoot biomass, greenhouse; assay type: in vivo, Cicer arietinum; details: 25 days after treatment; for Nodules: untreated 11.3; for Dry matter root: untreated 1100; for Dry matter shoot: untreated 2110
Experimental: as §1
Chick-pea plants (UC-27) were cultivated under greenhouse conditions in low N, sandy loam soil in plastic pots (750 ml) and watered from above as required. A few days after emergence the plants were thinned out to 3 plants per pot.
In 6 pots in each case 25 ml each of an aqueous preparation of one concentration of 2.3.1.3 were applied by watering. 6 pots remained untreated.
25 days after treatment the following results were obtained: […]

SMILES: COC(=O)COC(=O)CON=C(C)C [active compound 2.3.1.3]
- shoot growth (fresh shoot weight) (Wheat (Ralle)): shoot growth was promoted in nearly all cases
- shoot growth (fresh shoot weight) (rape (Petranova)): shoot growth was promoted in nearly all cases
- Dry matter (shoot + root) ([1]; 0.03 mg/pot): 3.2 g/pot
- Nodules ([1]; 0.03 mg/pot): 28 number/pot
- Total N (total nitrogen in shoot + root) ([1]; 0.03 mg/pot): 75.0 mg/pot
- Dry matter (shoot + root) ([1]; 0.30 mg/pot): 4.0 g/pot
- Nodules ([1]; 0.30 mg/pot): 127 number/pot
- Total N (total nitrogen in shoot + root) ([1]; 0.30 mg/pot): 120.5 mg/pot
- Dry matter (shoot + root) ([1]; 3.00 mg/pot): 3.1 g/pot
- Nodules ([1]; 3.00 mg/pot): 99 number/pot
- Total N (total nitrogen in shoot + root) ([1]; 3.00 mg/pot): 109.5 mg/pot
- Nodules (Peas (Field Peas VNS); 3 g of a.s./ha): 41.5 number/plant
- Dry matter root (Peas (Field Peas VNS); 3 g of a.s./ha): 849 mg/plant
- Dry matter shoot (Peas (Field Peas VNS); 3 g of a.s./ha): 1064 mg/plant
- Nodules (Peas (Field Peas VNS); 30 g of a.s./ha): 39.4 number/plant
- Dry matter root (Peas (Field Peas VNS); 30 g of a.s./ha): 704 mg/plant
- Dry matter shoot (Peas (Field Peas VNS); 30 g of a.s./ha): 795 mg/plant
- Nodules (Peas (Field Peas VNS); 300 g of a.s./ha): 56.1 number/plant
- Dry matter root (Peas (Field Peas VNS); 300 g of a.s./ha): 945 mg/plant
- Dry matter shoot (Peas (Field Peas VNS); 300 g of a.s./ha): 1209 mg/plant
- Total N (shoot + root) ([2]; 0.003 mg of a.s./pot): 109 % of control
- Nodules ([2]; 0.003 mg of a.s./pot): 60 number/pot
- Total N (shoot + root) ([2]; 0.030 mg of a.s./pot): 108 % of control
- Nodules ([2]; 0.030 mg of a.s./pot): 62 number/pot
- Total N (shoot + root) ([2]; 0.300 mg of a.s./pot): 118 % of control
- Nodules ([2]; 0.300 mg of a.s./pot): 73 number/pot
- Nodules ([3]; 0.003 mg of a.s./pot; procedure as in 3 a)): 72 number/pot
- Nodules ([3]; 0.030 mg of a.s./pot; procedure as in 3 a)): 83 number/pot
- Nodules ([3]; 0.300 mg of a.s./pot; procedure as in 3 a)): 69 number/pot
- Nodules (Soybeans (A 5403); 3 g of a.s./ha): 47.6 number/plant
- Dry matter root (Soybeans (A 5403); 3 g of a.s./ha): 2806 mg/plant
- Dry matter shoot (Soybeans (A 5403); 3 g of a.s./ha): 4020 mg/plant
- Nodules (Soybeans (A 5403); 300 g of a.s./ha): 54.9 number/plant
- Dry matter root (Soybeans (A 5403); 300 g of a.s./ha): 1326 mg/plant
- Dry matter shoot (Soybeans (A 5403); 300 g of a.s./ha): 4117 mg/plant
- Nodules (Chick-pea plants (UC-27); 30 g of a.s./ha): 31.4 number/plant
- Dry matter root (Chick-pea plants (UC-27); 30 g of a.s./ha): 1280 mg/plant
- Dry matter shoot (Chick-pea plants (UC-27); 30 g of a.s./ha): 2690 mg/plant
- Nodules (Chick-pea plants (UC-27); 300 g of a.s./ha): 44.0 number/plant
- Dry matter root (Chick-pea plants (UC-27); 300 g of a.s./ha): 1520 mg/plant
- Dry matter shoot (Chick-pea plants (UC-27); 300 g of a.s./ha): 3350 mg/plant
- Nodules (Chick-pea plants (UC-27); 3000 g of a.s./ha): 6.2 number/plant
- Dry matter root (Chick-pea plants (UC-27); 3000 g of a.s./ha): 1150 mg/plant
- Dry matter shoot (Chick-pea plants (UC-27); 3000 g of a.s./ha): 4110 mg/plant
